# Source: patent US20240092835A1, “NOVEL PEPTIDES CAPABLE OF ALTERING NK CELL ACTIVITY” (Massachusetts Institute of Technology, priority 2022, published 2024)
# Legend:
# [1] = target: T1, HLA-E (Homo sapiens, UniProt P13747); experiment: HLA-E surface stabilization assay with RMA-S/HLA-E cells; assay type: cell-based; conditions: 30 μM peptide, 16 hours; for HLA-E surface expression stability (GeoMFI): anti-HLA-E antibody
# T1 construct: expressed in transfected cells; host or cells: RMA-S/HLA-E cells (antigen processing-defective lymphoma cell line)
# Procedure: HLA-E surface expression was assessed by measuring geometric mean fluorescence intensity (GeoMFI) in RMA-S cells following immunofluorescence staining with an anti-HLA-E antibody (Table 14). Increased GeoMFI was indicative of increased HLA-E surface expression stability following novel peptide exposures (FIG. 3).
# [2] = test system: NKG2A+/NKG2C− NK cells; experiment: NK cell activation markers in NKG2A+/NKG2C- NK cells incubated with peptide and K562 expressing HLA-E (inhibition); assay type: cell-based, human; conditions: for percentage of CCL3+ NK cells / percentage of CD107a+ NK cells / percentage of IFNG+ NK cells / percentage of TNF+ NK cells: NKG2A+/NKG2C- NK cells, K562/HLA-E
# Procedure, shortened: (§1)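 Human myelogenous leukemia K562 cells displaying HLA-E carry the test peptides (human or HCMV origin) and are presented to NK cells; surface activation markers are scored by percent positive cells.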
# [3] = test system: NKG2A−/NKG2C− NK cells; experiment: NK cell activation markers in control NKG2A-/NKG2C- NK cells incubated with peptide and K562 expressing HLA-E; assay type: cell-based, human
# Procedure, shortened: as §1
# [4] = test system: NKG2A−/NKG2C+ NK cells; experiment: NKG2A-/NKG2C+ NK cell activation with peptide and RMA-S cells expressing HLA-E; assay type: cell-based; conditions: RMA-S cells expressing HLA-E
# Procedure: An antigen processing-defective lymphoma cell line (RMA-S), with a low-level expression of HLA-E, were incubated with the novel peptides to determine the inhibitory strength on NKG2A−/NKG2C+NK cells relative to positive control sequences with differential effects ([…] (SEQ ID NO: 19)/VMAPRTLFL (SEQ ID NO: 18)). The effects of the peptides on NK cell inhibition were determined by measuring four markers of NK cell activation (CD107a, IFNG, TNF, CCL3) in NKG2A−/NKG2C+NK cells (FIGS. 2A-2D). Activation was indicated by an increase in percent cells positive for cell surface markers.
# [5] = test system: NKG2A−/NKG2C+ NK cells; experiment: NK cell activation markers in NKG2A-/NKG2C+ NK cells incubated with peptide and K562 expressing HLA-E (activation); assay type: cell-based, human; conditions: for percentage of CCL3+ NK cells / percentage of CD107+ NK cells / percentage of IFNG+ NK cells / percentage of TNF+ NK cells: NKG2A-/NKG2C+ NK cells, K562/HLA-E
# Procedure, shortened: as §1
# [6] = K562 expressing HLA-E, CD107a, IFNG, TNF, CCL3
# T1 sequence (P13747 22-358): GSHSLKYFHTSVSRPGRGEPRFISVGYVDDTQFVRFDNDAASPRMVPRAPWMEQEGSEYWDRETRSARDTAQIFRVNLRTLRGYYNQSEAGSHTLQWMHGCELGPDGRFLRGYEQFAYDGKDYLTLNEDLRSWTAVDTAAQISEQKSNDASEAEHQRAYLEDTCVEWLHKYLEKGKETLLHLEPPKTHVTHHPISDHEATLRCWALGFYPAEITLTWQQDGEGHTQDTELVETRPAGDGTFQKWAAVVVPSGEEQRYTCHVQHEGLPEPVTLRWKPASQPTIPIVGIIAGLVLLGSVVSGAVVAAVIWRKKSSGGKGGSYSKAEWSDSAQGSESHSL
# T1 sequence (P61769 21-119 partner): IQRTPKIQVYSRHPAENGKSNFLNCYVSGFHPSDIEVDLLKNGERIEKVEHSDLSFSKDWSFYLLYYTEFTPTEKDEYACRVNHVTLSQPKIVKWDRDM
sequence,measurement,setting,value
"NMPARTVLF [human14, peptide MTREX 490-498 derived from the human proteome]",HLA-E surface expression stability (GeoMFI),[1]; Trial 1,1304 GeoMFI
same,HLA-E surface expression stability (GeoMFI),[1]; Trial 2,1364 GeoMFI
same,HLA-E surface expression stability (GeoMFI),[1]; Trial 3,1005 GeoMFI
same,HLA-E surface expression stability (GeoMFI),[1]; Trial 4,1738 GeoMFI
same,"HLA-E surface expression stabilization strength, approximate GeoMFI",[1]; approximate value,approximately 1×10^3 GeoMFI
same,effect on NKG2A+/NKG2C− NK cell inhibition (in words),[2]; [6],strong inhibitory
same,percentage of CCL3+ NK cells,[2]; Trial 1,3.55%
same,percentage of CD107a+ NK cells,[2]; Trial 1,1.54%
same,percentage of IFNG+ NK cells,[2]; Trial 1,0.3%
same,percentage of TNF+ NK cells,[2]; Trial 1,0.12%
same,percentage of CCL3+ NK cells,[2]; Trial 2,6.94%
same,percentage of CD107a+ NK cells,[2]; Trial 2,2.38%
same,percentage of IFNG+ NK cells,[2]; Trial 2,0.79%
same,percentage of TNF+ NK cells,[2]; Trial 2,0.31%
same,percentage of CCL3+ NK cells,[2]; Trial 3,6.08%
same,percentage of CD107a+ NK cells,[2]; Trial 3,3.66%
same,percentage of IFNG+ NK cells,[2]; Trial 3,2.62%
same,percentage of TNF+ NK cells,[2]; Trial 3,1.09%
same,percentage of CCL3+ NK cells,[2]; Trial 4,3.51%
same,percentage of CD107a+ NK cells,[2]; Trial 4,2.52%
same,percentage of IFNG+ NK cells,[2]; Trial 4,0.83%
same,percentage of TNF+ NK cells,[2]; Trial 4,0.55%
same,percentage of CCL3+ NK cells,[2]; Trial 5,17%
same,percentage of CD107a+ NK cells,[2]; Trial 5,4.05%
same,percentage of IFNG+ NK cells,[2]; Trial 5,2.12%
same,percentage of TNF+ NK cells,[2]; Trial 5,0.89%
same,percentage of CCL3+ NK cells,[2]; Trial 6,2.66%
same,percentage of CD107a+ NK cells,[2]; Trial 6,1.16%
same,percentage of IFNG+ NK cells,[2]; Trial 6,0.43%
same,percentage of TNF+ NK cells,[2]; Trial 6,0.14%
same,percentage CCL3+ NK cells,[3]; Trial 1,29.3%
same,percentage CD107+ NK cells,[3]; Trial 1,20.9%
same,percentage TNF+ NK cells,[3]; Trial 1,2.61%
same,percentage of IFNG+ NK cells,[3]; Trial 1,12.1%
same,percentage CCL3+ NK cells,[3]; Trial 2,54.7%
same,percentage CD107+ NK cells,[3]; Trial 2,31.4%
same,percentage TNF+ NK cells,[3]; Trial 2,9.25%
same,percentage of IFNG+ NK cells,[3]; Trial 2,27.7%
same,percentage CCL3+ NK cells,[3]; Trial 3,44%
same,percentage CD107+ NK cells,[3]; Trial 3,43.7%
same,percentage TNF+ NK cells,[3]; Trial 3,17.1%
same,percentage of IFNG+ NK cells,[3]; Trial 3,36.5%
same,percentage CCL3+ NK cells,[3]; Trial 4,29.2%
same,percentage CD107+ NK cells,[3]; Trial 4,25.6%
same,percentage TNF+ NK cells,[3]; Trial 4,8.96%
same,percentage of IFNG+ NK cells,[3]; Trial 4,17.5%
same,percentage CCL3+ NK cells,[3]; Trial 5,26.9%
same,percentage CD107+ NK cells,[3]; Trial 5,21.8%
same,percentage TNF+ NK cells,[3]; Trial 5,7.19%
same,percentage of IFNG+ NK cells,[3]; Trial 5,16.7%
same,percentage CCL3+ NK cells,[3]; Trial 6,20.9%
same,percentage CD107+ NK cells,[3]; Trial 6,16.7%
same,percentage TNF+ NK cells,[3]; Trial 6,2.97%
same,percentage of IFNG+ NK cells,[3]; Trial 6,7.36%
same,NKG2A−/NKG2C+ NK cell activation relative to positive control peptides (in words),[4],decreased NK cell activation relative to the positive control peptides
same,effect on NKG2A−/NKG2C+ NK cell activation (in words),[5]; [6],strong inhibitory and activating effects
same,percentage of CCL3+ NK cells,[5]; Trial 1,70.6%
same,percentage of CD107+ NK cells,[5]; Trial 1,61.3%
same,percentage of IFNG+ NK cells,[5]; Trial 1,45.6%
same,percentage of TNF+ NK cells,[5]; Trial 1,31.9%
same,percentage of CCL3+ NK cells,[5]; Trial 2,87.5%
same,percentage of CD107+ NK cells,[5]; Trial 2,83.1%
same,percentage of IFNG+ NK cells,[5]; Trial 2,72.7%
same,percentage of TNF+ NK cells,[5]; Trial 2,65.1%
same,percentage of CCL3+ NK cells,[5]; Trial 3,82.5%
same,percentage of CD107+ NK cells,[5]; Trial 3,85%
same,percentage of IFNG+ NK cells,[5]; Trial 3,74.2%
same,percentage of TNF+ NK cells,[5]; Trial 3,65%
same,percentage of CCL3+ NK cells,[5]; Trial 4,61.1%
same,percentage of CD107+ NK cells,[5]; Trial 4,59.1%
same,percentage of IFNG+ NK cells,[5]; Trial 4,47.5%
same,percentage of TNF+ NK cells,[5]; Trial 4,40%
same,percentage of CCL3+ NK cells,[5]; Trial 5,71.8%
same,percentage of CD107+ NK cells,[5]; Trial 5,70.5%
same,percentage of IFNG+ NK cells,[5]; Trial 5,61.9%
same,percentage of TNF+ NK cells,[5]; Trial 5,57.9%
same,percentage of CCL3+ NK cells,[5]; Trial 6,52.1%
same,percentage of CD107+ NK cells,[5]; Trial 6,44.3%
same,percentage of IFNG+ NK cells,[5]; Trial 6,30.5%
same,percentage of TNF+ NK cells,[5]; Trial 6,21.8%
